Assay results reported in US10124008B2, “Use of inhibitors of acid sphingomyelinase to treat acquired and inherited retinal degenerations” (Wisconsin Alumni Research Foundation, priority 2014, dated 2018).

Legend:
MHC-II in RPE = assay: Quantification of MHC-II staining; assay type: cell-based; details: RPE with A2E
[1] = tested on: EGFP-LC3-labeled autophagosomes in primary RPE; assay: Live imaging of EGFP-LC3 autophagosome trafficking (spinning disk, Boolean gating); assay type: cell-based, porcine; details: desipramine 10 μM for 3 h
Method: RPE cells were transfected with EGFP-LC3 or tandem fluorescent mRFP-GFP-LC3 (Addgene) using the AMAXA NUCLEOFECTOR II (Lonza). Approximately 1.5 million cells and 5 μg of plasmid DNA were used for each transfection. Cells were plated either on serum-coated glass-bottom dishes (Mattek) or TRANSWELL filters at confluence. Live imaging of autophagosome traffic and autophagic flux were performed on the Revolution XD spinning disk microscopy system (Andor) equipped with the Yokogawa CSU-X1 confocal spinning disk head, Nikon Eclipse Ti inverted microscope surrounded by an Okolab cage incubator, iXon x3 897 EM-CCD camera, Andor laser combiner with four solid state lasers at 405, 488, 561, and 640 nm and corresponding band-pass filter sets (Sutter), and ASI motorized stage with piezo-Z for rapid Z-stack acquisition. Andor IQ2 software was used for image acquisition and Imaris x64 (Bitplane) for image analysis. For live imaging, cells were serum starved for 2 h to induce autophagy and rapid z-stacks were acquired using the 100×1.49 NA Apo TIRF objective (Nikon) for ˜50 frames at 37° C. Trafficking data was collected from three separate transfections for a total of at least 12-30 movies captured for treatment. During image acquisition care was taken to maintain the same laser power, exposure and electron-multiplying gain settings. Trafficking analysis was carried out using the Spots and Tracks modules of the Imaris software (Liu et al., 2010). After background subtraction (using the background subtraction algorithm and identical automatic threshold for all images) and smoothing (Gaussian algorithm with identical threshold settings for all images), Spots and Tracks algorithms were used to identify vesicles and follow them through time and cell-space to obtain total track length and track displacement. […] Data were analyzed using either a two-tailed t-test or one-way ANOVA followed by Bonferroni or Dunnett's post-tests (GraphPad PRISM). Unless otherwise stated, data are presented as Mean±S.E.M. of ≥3 independent experiments, with 3 to 4 replicates per condition per experiment. […] Regions were defined by: minimum or maximum track length, minimum or maximum displacement and a slope of 0.5 (displacement divided by length). Tracks with slope <0.5 were taken as less straight (region 2) than those with slope of >0.5 (region 3). Tracks within each region are represented as a percent of total number of tracks in Tables 1 and 2. One-way ANOVA or t-tests were used to compare regions between treatment groups. […] To examine the efficiency of autophagosome transport, Spots and Tracks algorithms in Imaris were used to calculate how far each autophagosome traveled (track displacement length) as a function of the movement required to travel that distance (total track length) (Liu et al., 2010).

[2] = tested on: acetylated tubulin in polarized primary RPE; assay: Immunofluorescence staining of acetylated and tyrosinated tubulin; assay type: cell-based, porcine; details: inhibitors 10 μM for 3 h, 48 h after A2E treatment
Method: ALEXAFLUOR secondary antibodies were used at 1:500 and rhodamine-phalloidin (Cytoskeleton, PHDR1) at 1:200. Filters were mounted under coverslips on glass slides under […] (Vector labs), sealed and visualized with Andor Revolution XD spinning disk confocal microscope using a 60×1.4 NA oil objective with identical exposures and gains for each antibody. Acetylated tubulin-labeled stable microtubules (≥5 μm in length) after nocodazole treatment were analyzed manually in the Surpass mode of Imaris (Bitplane).
We performed two initial screens: first, we compared the ability of functional inhibitors (fluoxetine and amitriptyline) with that of the lone structural ASMase inhibitor zoledronic acid in decreasing acetylated tubulin. Here, polarized RPE monolayers with or without A2E were treated with one of the three inhibitors (10 μM, 3 h). Desipramine as a positive control. At the end of the incubation period, cells were fixed and stained for acetylated tubulin, imaged and the amount of acetylated tubulin in the cells was quantified. Second, we evaluated three additional drugs (sertraline, astemizole and fexofenadine) for their abilities to increase autophagy in the RPE. Cells with or without bisretinoids were transfected with mRFP-GFP-LC3, starved to induce autophagy, treated with drugs and imaged as in FIG. 9D.

primary RPE monolayers = assay: Reactive oxygen species assay (CELLROX) after 10% NHS; assay type: cell-based, porcine; details: RPE with A2E, short treatment with desipramine
Method: Reactive oxygen species (ROS) generation was measured using […] Deep Red (Molecular Probes, #10422) according to manufacturer's recommendation. After 10% NHS treatment, medium containing NHS was removed and cells were rinsed with HBSS before incubation in 5 μM […] reagent at 37° C. for 30 min. Cells were rinsed 3 times with PBS and fluorescence was read with microplate reader at Ex/Em of 640/665. For normalization purposes, cells were fixed, stained with DAPI, and fluorescence was read at Ex/Em: 360/460.

[3] = tested on: CD59 on polarized primary RPE; assay: Surface CD59 staining; assay type: cell-based, porcine; details: RPE with A2E; short treatment with desipramine
Method: AlexaFluor secondary antibodies were used at 1:500. Filters were mounted under coverslips on glass slides under VECTASHIELD (Vector labs), sealed and visualized with Andor Revolution XD spinning disk confocal microscope using 60×1.4 NA or 100×1.49 NA oil objectives with identical exposures and gains for each antibody. Quantification of surface CD59 staining was performed using Imaris.

[4] = tested on: acid sphingomyelinase (ASMase); assay: ASMase activity in primary RPE (sphingomyelinase fluorimetric assay kit); assay type: cell-based, porcine; details: desipramine 10 μM for 3 hours
Method: Cells were harvested by trypsinization and cell pellets were washed with PBS to remove residual medium. Cells were lysed in HNTG lysis buffer (50 mM Hepes, pH 7.4, 150 mM NaCl, 10% glycerol, 1.5 mM MgCl2, 1% triton X-100) supplemented with protease inhibitors. Total protein was measured using the DC protein assay kit (BioRad). Cellular cholesterol was quantified using the Amplex Red cholesterol assay kit (INVITROGEN) as detailed previously (Lakkaraju et al., 2007). Single eyecups from wild-type and ABCA4^−/− mice were homogenized in 50 μl of lysis buffer and processed as above. For measuring acid sphingomyelinase activity, cells were lysed in acidic pH and assays were performed using the sphingomyelinase fluorimetric assay kit from Cayman Chemicals according to the manufacturer's protocol.

[5] = percent of total EGFP-LC3 tracks, serum-starved RPE

With `CNCCCN1c2ccccc2CCc2ccccc21` [desipramine] the MHC-II protein levels (MHC-II in RPE) was “decreased MHC-II protein levels”, the “number of motile tracks and long-range displacement of autophagosomes” value ([1]; RPE cells with A2E) was “increased both the number of motile tracks and long-range displacement of autophagosomes” and the “Region 1 (R1) (D <2.5 μm, L <10 μm)” value [1, 5] was 84.28%. For the same molecule, the “Region 3 (R3) (L >10 μm, Slope >0.5 μm)” value [1, 5] was 7.93%, the “acetylated tubulin in RPE with A2E” value [2] was “decreased acetylated tubulin in cells with A2E” and the “ROS levels after complement attack” value (primary RPE monolayers) was “decreased ROS levels after complement attack”. For the same molecule, the “ROS levels after complement attack” value (primary RPE monolayers; listed as Desipramine) was “prevented mitochondrial oxidative damage after complement attack”, the “surface CD59 levels” value [3] was “increased surface CD59 levels” and the ASMase activity [4] was “decreased ASMase activity and ceramide levels”.
